According to PMC5333991 (Journal of biomolecular screening, 2009):

Tests used:
[1] = molecular target: CYP2C9 (Homo sapiens, UniProt P11712); assay: in vitro
[2] = molecular target: CYP3A4 (Homo sapiens, UniProt P08684); assay: fluorogenic CYP450 inhibition assay; type: biochemical
Chain of CYP3A4 (P08684 2-503): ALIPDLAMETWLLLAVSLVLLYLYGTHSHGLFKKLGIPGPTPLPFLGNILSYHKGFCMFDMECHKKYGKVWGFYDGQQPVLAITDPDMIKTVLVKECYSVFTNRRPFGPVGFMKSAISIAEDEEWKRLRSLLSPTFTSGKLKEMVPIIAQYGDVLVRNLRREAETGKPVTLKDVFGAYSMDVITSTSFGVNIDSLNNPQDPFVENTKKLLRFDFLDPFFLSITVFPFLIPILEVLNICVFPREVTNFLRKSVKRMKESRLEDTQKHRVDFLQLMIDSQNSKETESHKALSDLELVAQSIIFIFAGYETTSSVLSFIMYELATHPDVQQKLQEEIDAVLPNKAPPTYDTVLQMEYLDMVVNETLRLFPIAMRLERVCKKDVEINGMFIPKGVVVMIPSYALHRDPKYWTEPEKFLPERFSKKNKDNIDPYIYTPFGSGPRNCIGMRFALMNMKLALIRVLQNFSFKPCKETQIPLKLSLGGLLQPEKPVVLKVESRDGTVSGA
Chain of CYP3A4 (P16435 2-677 partner): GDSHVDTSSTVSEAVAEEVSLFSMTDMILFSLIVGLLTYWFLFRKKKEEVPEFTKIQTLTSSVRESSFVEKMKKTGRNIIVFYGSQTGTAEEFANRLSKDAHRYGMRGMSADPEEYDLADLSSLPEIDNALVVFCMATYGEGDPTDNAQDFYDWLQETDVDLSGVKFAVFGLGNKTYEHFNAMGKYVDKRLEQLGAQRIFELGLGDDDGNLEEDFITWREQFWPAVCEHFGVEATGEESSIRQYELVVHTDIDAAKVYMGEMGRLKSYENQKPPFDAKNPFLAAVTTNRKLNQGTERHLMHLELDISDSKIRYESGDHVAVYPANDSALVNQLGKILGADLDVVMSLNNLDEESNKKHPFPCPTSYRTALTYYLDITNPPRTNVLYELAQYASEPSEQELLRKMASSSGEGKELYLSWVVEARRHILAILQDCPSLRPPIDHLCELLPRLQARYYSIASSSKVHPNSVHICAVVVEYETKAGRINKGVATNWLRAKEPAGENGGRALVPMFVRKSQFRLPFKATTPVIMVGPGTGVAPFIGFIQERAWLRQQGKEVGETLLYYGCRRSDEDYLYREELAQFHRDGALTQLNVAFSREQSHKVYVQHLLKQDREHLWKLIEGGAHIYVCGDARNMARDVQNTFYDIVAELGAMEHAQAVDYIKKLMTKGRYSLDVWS

Chain of CYP2C9 (P11712 whole entry): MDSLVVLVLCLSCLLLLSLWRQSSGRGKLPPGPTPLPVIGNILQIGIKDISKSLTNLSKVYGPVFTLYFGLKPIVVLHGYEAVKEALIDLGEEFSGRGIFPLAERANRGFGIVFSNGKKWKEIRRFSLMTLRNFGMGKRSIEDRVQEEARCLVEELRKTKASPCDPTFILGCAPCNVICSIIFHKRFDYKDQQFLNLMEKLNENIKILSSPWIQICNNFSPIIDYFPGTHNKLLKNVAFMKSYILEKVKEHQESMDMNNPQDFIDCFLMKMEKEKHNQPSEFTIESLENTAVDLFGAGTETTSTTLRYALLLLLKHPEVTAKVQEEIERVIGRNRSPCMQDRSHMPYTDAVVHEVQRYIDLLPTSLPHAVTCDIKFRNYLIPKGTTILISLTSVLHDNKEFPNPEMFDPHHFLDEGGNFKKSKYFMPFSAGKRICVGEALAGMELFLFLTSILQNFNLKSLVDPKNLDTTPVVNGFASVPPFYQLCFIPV
Chain of CYP2C9 (P16435 2-677 partner): as the sequence (P16435 2-677 partner) above

Compound	activity at 0.25 µM [1]	activity at 0.1 µM [2]
Nc1ccc(S(=O)(=O)Nc2ccnn2-c2ccccc2)cc1 [sulfaphenazole]	~50%	
CC(=O)N1CCN(c2ccc(OC[C@H]3CO[C@](Cn4ccnc4)(c4ccc(Cl)cc4Cl)O3)cc2)CC1 (relative stereo) [ketoconazole]		< 40%
